Measurements published in article PMC8536124 (International Journal of Molecular Sciences, 2021).

Assays:
[1] = system: MDA-MB-468; experiment: NCI-60 screening (SRB); type: cell-based, human; conditions: five-dose
[2] = system: T-47D; experiment: NCI-60 screening (SRB); type: cell-based, human; conditions: five-dose
[3] = system: MALME-3M; experiment: NCI-60 screening (SRB); type: cell-based, human
[4] = system: SK-MEL-5; experiment: NCI-60 screening (SRB); type: cell-based, human; conditions: SK-MEL-5
[5] = system: SN12C; experiment: NCI-60 screening (SRB); type: cell-based, human; conditions: five-dose
[6] = system: SK-OV-3; experiment: NCI-60 screening (SRB); type: cell-based, human; conditions: five-dose
[7] = system: DU-145; experiment: NCI-60 screening (SRB); type: cell-based, human; conditions: five-dose
[8] = system: PC-3; experiment: NCI-60 screening (SRB); type: cell-based, human; conditions: five-dose
[9] = system: OVCAR-8; experiment: NCI-60 screening (SRB); type: cell-based, human; conditions: five-dose
[10] = system: HOP-62; experiment: NCI-60 screening (SRB); type: cell-based, human; conditions: five-dose
[11] = system: CNS cancer; experiment: cells; type: cell-based
From the text: The experimental data allow the assessment of the cytostatic effect, indicated by growth inhibition values ranging between 0 and 100, as well as of the cytotoxic effect, indicated by negative values.
The mean GI50 (molar concentration of the compound that inhibits 50% net cell growth), TGI (molar concentration of the compound leading to the total inhibition), and LC50 (molar concentration of the compound leading to 50% net cell death (presented in negative logarithm)) values across each cell line are shown in Table 2.
The selectivity index (SI), calculated as the ratio between the full panel MG_MID60 (μM) of compounds 4, 6, and 9 by their respective subpanels MG_MID of the cell line (μM), was introduced as a quantification tool for the selectivity of each compound in terms of anticancer effect (Table 3).
Primary anticancer assays were performed according to the NCI protocol, as described elsewhere (see e.g., http://dtp.nci.nih.gov accessed on 1 November 2018). The compounds were added at a single concentration, and the cell cultures were incubated for 48 h. The end point determinations were made with a protein-binding dye, sulforhodamine B (SRB). […] The percentage of growth was evaluated spectrophotometrically versus controls not treated with test agents after 48 h exposure and using SRB protein assay to estimate cell viability or growth. Three antitumor activity dose-response parameters were calculated for each cell line. Furthermore, mean graph midpoints (MG_MID) were calculated for each of the parameters, giving an average activity parameter over all cell lines for the tested compound. For the MG_MID calculation, insensitive cell lines were included with the highest concentration tested.

[12] = system: HOP-92; experiment: NCI-60 screening (SRB); type: cell-based, human; conditions: five-dose
[13] = system: SK-MEL-2; experiment: NCI-60 screening (SRB); type: cell-based, human; conditions: five-dose
[14] = system: NCI/ADR-RES; experiment: NCI-60 screening (SRB); type: cell-based, human; conditions: five-dose
[15] = system: 786-0; experiment: NCI-60 screening (SRB); type: cell-based, human; conditions: five-dose
[16] = system: CAKI-1; experiment: NCI-60 screening (SRB); type: cell-based, human; conditions: CAKI-1, five-dose
[17] = system: UACC-62; experiment: NCI-60 screening (SRB); type: cell-based, human; conditions: five-dose
[18] = system: SF-539; experiment: NCI-60 screening (SRB); type: cell-based, human
[19] = system: NCI-H23; experiment: NCI-60 screening (SRB); type: cell-based, human; conditions: five-dose
[20] = system: HCT-15; experiment: NCI-60 screening (SRB); type: cell-based, human; conditions: five-dose
[21] = system: U251; experiment: NCI-60 screening (SRB); type: cell-based, human; conditions: U251, five-dose
[22] = system: EKVX; experiment: NCI-60 screening (SRB); type: cell-based, human; conditions: five-dose
[23] = system: HS 578T; experiment: NCI-60 screening (SRB); type: cell-based, human; conditions: five-dose
[24] = system: SF-295; experiment: NCI-60 screening (SRB); type: cell-based, human; conditions: five-dose
[25] = system: MCF7; experiment: NCI-60 screening (SRB); type: cell-based, human; conditions: five-dose
[26] = system: MDA-MB-31/ATCC; experiment: NCI-60 screening (SRB); type: cell-based, human; conditions: five-dose
[27] = system: SNB-19; experiment: NCI-60 screening (SRB); type: cell-based, human; conditions: five-dose
[28] = Homo sapiens, read-out: LC50 (the source's name)

Structure (SMILES): CCN1CCN(C(=O)[C@]23CC[C@@H](C)[C@H](C)[C@H]2C2=CC[C@@H]4[C@@]5(C)CCC(=O)C(C)(C)[C@@H]5CC[C@@]4(C)[C@]2(C)CC3)CC1 [Compound 4, N-(3-oxo-ursan-12-en-28-oyl)-ethylpiperazine]
- GI50 ([1]; Homo sapiens): 931 nM
- CC50 [1, 28]: 9270 nM
- TGI [1]: 2320 nM
- GI50 ([2]; Homo sapiens, T47D): 1330 nM
- LC50 (concentration killing 50% of cells) ([2]; Homo sapiens, T47D): > 50000 nM
- TGI [2]: 3890 nM
- GI50 ([3]; Homo sapiens, MALME-3M, five-dose): 807 nM
- CC50 ([3]; Homo sapiens, MALME-3M, five-dose, read-out: LC50 (the source's name)): 8840 nM
- Growth % ([3]; MALME-3M (Melanoma), 1 dose 10 µM): −85.67%
- TGI ([3]; MALME-3M, five-dose): 1510 nM
- GI50 ([4]; Homo sapiens, five-dose): 888 nM
- CC50 ([4]; Homo sapiens, five-dose, read-out: LC50 (the source's name)): 2890 nM
- Growth % ([4]; 1 dose 10 µM): −84.06%
- TGI ([4]; five-dose): 1600 nM
- GI50 ([5]; Homo sapiens): 776 nM
- CC50 [5, 28]: 2810 nM
- TGI [5]: 1480 nM
- GI50 ([6]; Homo sapiens): 1150 nM
- CC50 [6, 28]: 17200 nM
- TGI [6]: 4830 nM
- GI50 ([7]; Homo sapiens): 1670 nM
- CC50 [7, 28]: 18600 nM
- TGI [7]: 5620 nM
- GI50 ([8]; Homo sapiens): 875 nM
- CC50 [8, 28]: 18300 nM
- TGI [8]: 3170 nM
- GI50 ([9]; Homo sapiens): 1100 nM
- CC50 [9, 28]: 30100 nM
- TGI [9]: 2890 nM
- GI50 ([10]; Homo sapiens): 1380 nM
- LC50 ([10]; Homo sapiens): > 50000 nM
- TGI [10]: 3090 nM
- TGI MG_MID ([11]; CNS cancer subpanel, five-dose): 2840 nM
- SI (TGI) ([11]; CNS cancer, MG_MID60/subpanel MG_MID): 0.96
- GI50 ([11]; Homo sapiens, CNS cancer subpanel, five-dose, read-out: GI50 MG_MID): 1030 nM
- CC50 ([11]; Homo sapiens, CNS cancer subpanel, five-dose, read-out: LC50 MG_MID): 8690 nM
- GI50 ([12]; Homo sapiens): 713 nM
- CC50 [12, 28]: 8220 nM
- TGI [12]: 2060 nM
- GI50 ([13]; Homo sapiens): 1290 nM
- CC50 [13, 28]: 16200 nM
- TGI [13]: 3330 nM
- GI50 ([14]; Homo sapiens): 1080 nM
- CC50 [14, 28]: 18300 nM
- TGI [14]: 3240 nM
- GI50 ([15]; Homo sapiens): 814 nM
- CC50 [15, 28]: 3560 nM
- TGI [15]: 1700 nM
- TGI [16]: 2960 nM
- GI50 ([16]; Homo sapiens): 946 nM
- CC50 [16, 28]: 11200 nM
- GI50 ([17]; Homo sapiens): 835 nM
- CC50 [17, 28]: 3090 nM
- TGI [17]: 1610 nM
- GI50 ([18]; Homo sapiens, SF-539, five-dose): 843 nM
- CC50 ([18]; Homo sapiens, SF-539, five-dose, read-out: LC50 (the source's name)): 2800 nM
- TGI ([18]; SF-539, five-dose): 1540 nM
- Growth % ([18]; SF-539 CNS cancer, 1 dose 10 µM): −97.21%
- GI50 ([19]; Homo sapiens): 1080 nM
- CC50 [19, 28]: 11600 nM
- TGI [19]: 2900 nM
- GI50 ([20]; Homo sapiens): 977 nM
- CC50 [20, 28]: 7410 nM
- TGI [20]: 2390 nM
- GI50 ([21]; Homo sapiens, U-251): 854 nM
- CC50 ([21]; Homo sapiens, U-251, read-out: LC50 (the source's name)): 4000 nM
- TGI [21]: 1850 nM
- GI50 ([22]; Homo sapiens): 916 nM
- LC50 ([22]; Homo sapiens): 8950 nM
- TGI [22]: 2420 nM
- GI50 ([23]; Homo sapiens): 1070 nM
- CC50 [23, 28]: 26500 nM
- TGI [23]: 2680 nM
- GI50 ([24]; Homo sapiens): 820 nM
- CC50 [24, 28]: 3080 nM
- TGI [24]: 1590 nM
- GI50 ([25]; Homo sapiens): 892 nM
- CC50 [25, 28]: 4630 nM
- TGI [25]: 2030 nM
- GI50 ([26]; Homo sapiens): 779 nM
- CC50 [26, 28]: 2880 nM
- TGI [26]: 1500 nM
- GI50 ([27]; Homo sapiens): 849 nM
- CC50 [27, 28]: 3470 nM
- TGI [27]: 1720 nM
